# Patent US7276050B2, “Trans-scleral drug delivery method and apparatus” (priority 2004, dated 2007)
# Legend:
# [1] = Trans-scleral diffusion in 2 chamber perfusion apparatus (HPLC readout); type: in vitro ADME, human
# Text: Scleral tissue was obtained from 23 human donor eyes (Georgia Eye Bank, Atlanta) and was stored in moist chambers for 2-6 days post-mortem. The mean age at time of death (±SE) for the donor tissue used in this study was 52.4±4.4 years. Scleral tissue was dissected from the superotemporal quadrant of each eye to minimize associated structures that can modify scleral permeability such as vortex veins, posterior ciliary arteries, and anterior ciliary vessels. Uveal tissue and episclera were carefully removed using a cotton-tip applicator. The sclera was mounted horizontally in a 2 chamber acrylic perfusion apparatus (FIG. 1). The uveal surface was apposed to the lower flow-through hemi-chamber (volume 500 μL) containing balanced salt solution (BSS, Alcon laboratories, Ft. Worth, Tex.). The test solution was applied to the episcleral surface. Since CAI has a 423 Da molecular weight and the molecule is hydrophobic with a solubility of 1-10 μM in water, three different test solutions that contained carboxyamido-triazole were evaluated: CAI in 20% DMSO (80% BSS vol/vol) at a concentration (mean±SE) of 15.2±3.0 μM (solution A), CAI in 10% DMSO (90% BSS) at a concentration of 4.1±0.4 μM (solution B), and CAI in 10% ethanol (90% BSS) at a concentration of 3.3±0.2 μM (solution C).
# The BSS in the lower hemi-chamber was perfused at a rate of 0.03 ml/min. The perfusion apparatus was placed on a magnetic stir plate and mixing in the lower hemi-chamber was achieved using a stir bar. The upper hemi-chamber containing the test compound was covered with parafilm and sealed with silicone grease to prevent evaporation. This also provided a flexible seal so that trans-scleral pressure would not be altered. The temperature of the apparatus was maintained at 37° C. by a water jacket with circulating water bath.
# A physiologic pressure of 15 mm Hg was applied across the sclera by raising the height of the outflow tube of the receptor (lower-) chamber to 22 cm. A pressure transducer that was connected to the lower hemi-chamber verified the pressure. For all three solutions that contained carboxyamido-triazole 100 μl was applied to the episcleral side and samples of perfusate were collected at the uveal side of the sclera at time zero and at 30-minute intervals for the duration of 8 hours. The scleral permeability to CAI in a 10% ethanol solution was also evaluated over a longer period of 24 hours of which samples were taken hourly. For the 24 hours experiments 500 μl of the test solution was added to the upper hemi-chamber to minimize depletion of the drug on the donor side.
# From each sample obtained from the trans-scleral diffusion experiments an aliquot of 100 μl was taken and the concentrations of CAI were monitored by reverse-phase high-performance liquid chromatography (HPLC). Results were calculated on the basis of peak areas. Samples were analyzed by using a Hewlett Packard HP1100 HPLC system equipped with a UV detector, an auto-sampler, a pump, and a HP Kayak workstation that controls the operation of HPLC and analyzes the data. A Zorbak Rx-C8 column (4.6×250 mm) was used for separation and detection was set at 260 nm. The flow rate employed was 1.0 ml/min with mobile phase of 55% acetonitrile and 45% water. The injection volume was 100 μl and retention time of CAI was about 7.8 minutes.
# Steady state permeability constants were calculated from the data as: Ktrans=[Rtotal/(t)(A)]×1/[D]
# Where Rtotal is the amount of drug in the receiver effluent per collected fraction, and t is the fraction collection time (in seconds). A is the area of exposed sclera (in square centimeters). This value—Rtotal/(t)(A)—is equal to the flux across the tissue. D is the concentration of drug in the donor hemi-chamber. Permeability thus represents the steady state flux normalized by donor concentration. The area of exposed sclera was 0.385 cm2. Mean steady state permeability values (±SE) were calculated from four to eight experiments performed for each compound.
# [2] = Transmission electron microscopy of sclera after diffusion experiments; design: species or system human; details: after diffusion experiments with CAI in all three test solutions
# Protocol: At the end of the trans-scleral diffusion experiments with CAI (DMSO 10%, 20%, and ethanol 10%) and 2ME2 (1% DMSO) the scleral tissue was fixed in 2.5% glutaraldehyde in 0.1 M sodium cacodylate buffer and prepared for transmission electron microscopy (TEM). The scleral tissue was bisected and postfixed in 2% osmium tetroxide for 2 hours. Small pieces of the sclera were embedded in low-viscosity epoxy medium, thin sectioned, stained with uranyl acetate and lead citrate, and viewed with a JEOL 100 CX transmission electron microscope. The micrographs were taken at X 2850.
# [3] = tested on: hyperoxia-induced ocular neovascularization; assay: Mouse pup model of hyperoxia-induced ocular neovascularization; type: in vivo
# Text: Testing of CAI in a mouse pup model of hyperoxia-induced ocular neovascularization, in which posterior retinal ischemia mediates of pathological angiogenesis, has confirmed that CAI is a potent inhibitor of ocular angiogenesis in this model.
# [4] = cited from earlier work
# [5] = mouse pup, hyperoxia-induced ocular neovascularization
smiles,measurement,setting,value
"NC(=O)c1nnn(Cc2cc(Cl)c(C(=O)c3ccc(Cl)cc3)c(Cl)c2)c1N [CAI, Carboxyamido-triazole]",diffusion across the sclera,[1],diffused across the sclera effectively
same,time at which semi-steady state flux was observed,"[1]; human, 3.3 μM",13 h
same,time to reach steady state,"[1]; human, 4.1 μM",6 h
same,time to reach semi-steady state,"[1]; human, 15.2 μM",approximately 5 hours
same,"Papp at 8 h, 15.2 μM","[1]; solution A: 15.2 μM CAI in 20% DMSO (80% BSS), human sclera, 37° C., 15 mm Hg, n=4, read-out: permeability constant (mean±SE)",2.8 ×10⁻⁶ cm/s
same,"Papp at 8 h, 4.1 μM","[1]; solution B: 4.1 μM CAI in 10% DMSO (90% BSS), human sclera, n=7, read-out: permeability constant (mean±SE)",5.5 ×10⁻⁶ cm/s
same,"Papp at 24 h, 3.3 μM","[1]; solution C: 3.3 μM CAI in 10% EtOH (90% BSS), 24 hour sampling, human sclera, n=4, read-out: permeability constant (mean±SE)",4.16 ×10⁻⁶ cm/s
same,scleral ultrastructure by TEM,[2],normal ultrastructure within the sclera
same,intracellular bcl-2 (immunohistochemistry),"[3]; ischemic inner plexiform layer, mouse pup model",up regulation of intracellular bcl-2
same,formation of neovascular fronds,[3]; [5],nearly completely abolished formation of neovascular fronds
same,regression of preformed neovascular fronds,[3]; [5],dramatic and significant regression of preformed neovascular fronds
same,solubility in water,[4],1 to 10 µM
